Three molecules from ChEMBL document CHEMBL1135887, “Substituted pentacyclic carbazolones as novel muscarinic allosteric agents: synthesis and structure-affinity and cooperativity relationships” (J Med Chem, 2002) can be followed below.

For test [1], the target named is T1, Muscarinic acetylcholine receptor M1 (Homo sapiens) (UniProt P11229).
T1 sequence (whole entry): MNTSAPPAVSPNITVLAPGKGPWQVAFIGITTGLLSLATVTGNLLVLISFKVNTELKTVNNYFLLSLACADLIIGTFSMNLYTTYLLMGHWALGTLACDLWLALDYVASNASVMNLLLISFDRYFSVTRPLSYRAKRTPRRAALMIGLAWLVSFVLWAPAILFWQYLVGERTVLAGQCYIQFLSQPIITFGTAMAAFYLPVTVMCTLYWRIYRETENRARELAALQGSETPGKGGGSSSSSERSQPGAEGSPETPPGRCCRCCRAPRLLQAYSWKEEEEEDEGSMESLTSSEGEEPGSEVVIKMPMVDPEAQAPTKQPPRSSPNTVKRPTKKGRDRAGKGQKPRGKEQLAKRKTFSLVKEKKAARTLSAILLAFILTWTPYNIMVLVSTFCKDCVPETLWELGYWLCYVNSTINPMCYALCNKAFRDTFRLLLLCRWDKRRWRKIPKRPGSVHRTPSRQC
Nature of the test: Subtype selectivity and the cooperativity with N-methyl Scopolamine (NMS) at Muscarinic acetylcholine receptor M1; Activity range is 1.2-3.

Test [2] has as its target T2, Muscarinic acetylcholine receptor M2 (Homo sapiens) (UniProt P08172).
T2 sequence (whole entry): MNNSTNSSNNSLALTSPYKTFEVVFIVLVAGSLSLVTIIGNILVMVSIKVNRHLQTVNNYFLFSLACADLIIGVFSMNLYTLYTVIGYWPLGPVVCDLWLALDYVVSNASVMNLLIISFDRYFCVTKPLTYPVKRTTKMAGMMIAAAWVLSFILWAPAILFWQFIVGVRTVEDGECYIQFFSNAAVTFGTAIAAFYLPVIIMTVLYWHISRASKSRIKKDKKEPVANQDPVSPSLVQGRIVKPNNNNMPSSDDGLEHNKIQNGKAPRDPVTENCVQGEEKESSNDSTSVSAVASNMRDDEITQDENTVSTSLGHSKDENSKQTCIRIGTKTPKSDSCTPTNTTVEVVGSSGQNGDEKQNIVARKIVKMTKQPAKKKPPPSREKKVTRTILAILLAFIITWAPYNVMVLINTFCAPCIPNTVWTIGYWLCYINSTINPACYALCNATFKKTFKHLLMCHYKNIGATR
The experiment in a line: Logarithm of affinity (log 1/M) at the (N-methyl Scopolamine) NMS-liganded muscarinic acetylcholine receptor M2 by using semiquantitative equilibrium and off-rate assay.

For test [3], the target named is Muscarinic acetylcholine receptor M3 (Homo sapiens) (UniProt P20309). Nature of the test: Subtype selectivity and the cooperativity with N-methyl Scopolamine (NMS) at Muscarinic acetylcholine receptor M3; Activity range is 1.2-3.
For test [4] the target is unchanged. The experiment in a line: Logarithm of affinity (log 1/M) at the (N-methyl Scopolamine) NMS-liganded muscarinic acetylcholine receptor M3 by using semiquantitative equilibrium and off-rate assay.
Test [5] concerns the target T2, Muscarinic acetylcholine receptor M2 (Homo sapiens). The experiment in a line: Logarithm of affinity (log 1/M) at the muscarinic acetylcholine receptor M2 by using semiquantitative equilibrium and off-rate assay.
Test [6] has the same target. The experiment in a line: Subtype selectivity and the cooperativity with N-methyl Scopolamine (NMS) at Muscarinic acetylcholine receptor M2.
For test [7], the target named is T3, Muscarinic acetylcholine receptor M4 (Homo sapiens) (UniProt P08173).
T3 sequence (whole entry): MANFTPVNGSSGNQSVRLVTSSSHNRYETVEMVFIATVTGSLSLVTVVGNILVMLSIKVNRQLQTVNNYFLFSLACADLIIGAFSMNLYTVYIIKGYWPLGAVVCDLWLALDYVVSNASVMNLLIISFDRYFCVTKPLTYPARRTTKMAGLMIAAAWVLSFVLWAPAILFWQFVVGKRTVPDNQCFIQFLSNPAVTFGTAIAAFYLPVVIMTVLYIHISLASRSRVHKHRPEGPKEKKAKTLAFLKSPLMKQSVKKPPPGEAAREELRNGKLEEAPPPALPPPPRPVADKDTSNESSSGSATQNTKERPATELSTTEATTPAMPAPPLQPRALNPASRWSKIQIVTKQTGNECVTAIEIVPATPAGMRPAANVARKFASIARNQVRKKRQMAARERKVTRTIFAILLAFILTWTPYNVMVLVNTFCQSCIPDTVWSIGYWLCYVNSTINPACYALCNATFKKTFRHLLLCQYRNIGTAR
Nature of the test: Logarithm of affinity (log 1/M) at the muscarinic acetylcholine receptor M4 by using semiquantitative equilibrium and off-rate assay.

The target in test [8] is T1, Muscarinic acetylcholine receptor M1 (Homo sapiens). The experiment in a line: Logarithm of affinity (log 1/M) at the free muscarinic acetylcholine receptor M1 by using semiquantitative equilibrium and off-rate assay.
Test [9] deals with T3, Muscarinic acetylcholine receptor M4 (Homo sapiens). Nature of the test: Subtype selectivity and the cooperativity with N-methyl Scopolamine (NMS) at Muscarinic acetylcholine receptor M4.
For test [10] the target is unchanged. The experiment in a line: Logarithm of affinity (log 1/M) at the (N-methyl Scopolamine) NMS-liganded muscarinic acetylcholine receptor M4 by using semiquantitative equilibrium and off-rate assay.
Test [11] has as its target T1, Muscarinic acetylcholine receptor M1 (Homo sapiens). The experiment in a line: Logarithm of affinity (log 1/M) at the (N-methyl Scopolamine) NMS-liganded muscarinic acetylcholine receptor M1 by using semiquantitative equilibrium and off-rate assay.
Test [12] concerns the target Muscarinic acetylcholine receptor M3 (Homo sapiens) (UniProt P20309). The experiment in a line: Logarithm of affinity (log 1/M) at the muscarinic acetylcholine receptor M3 by using semiquantitative equilibrium and off-rate assay.
Test [13] concerns the target T2, Muscarinic acetylcholine receptor M2 (Homo sapiens). Nature of the test: Subtype selectivity and the cooperativity with N-methyl Scopolamine (NMS) at Muscarinic acetylcholine receptor M2,activity range is 1.2-3.
The target in test [14] is T3, Muscarinic acetylcholine receptor M4 (Homo sapiens). Nature of the test: Subtype selectivity and the cooperativity with N-methyl Scopolamine (NMS) at Muscarinic acetylcholine receptor M4; activity range is 0.2-0.8.
Test [15] concerns the target T1, Muscarinic acetylcholine receptor M1 (Homo sapiens). Nature of the test: Subtype selectivity and the cooperativity with N-methyl Scopolamine (NMS) at Muscarinic acetylcholine receptor M1,activity range is 0.2-0.8.
Test [16] has as its target Muscarinic acetylcholine receptor M3 (Homo sapiens) (UniProt P20309). The experiment in a line: Subtype selectivity and the cooperativity with N-methyl Scopolamine (NMS) at Muscarinic acetylcholine receptor M3; activity ranges is 0.2-0.8.
Test [17] has as its target T3, Muscarinic acetylcholine receptor M4 (Homo sapiens). The experiment in a line: Subtype selectivity and the cooperativity with N-methyl Scopolamine (NMS) at Muscarinic acetylcholine receptor M4; Activity range is 0.2-0.8.
Test [18] concerns the target T2, Muscarinic acetylcholine receptor M2 (Homo sapiens). The experiment in a line: Subtype selectivity and the cooperativity with N-methyl Scopolamine (NMS) at muscarinic M2 receptor; Activity range is 0.81-1.19.
The target in test [19] is T1, Muscarinic acetylcholine receptor M1 (Homo sapiens). Nature of the test: Subtype selectivity and the cooperativity with N-methyl Scopolamine (NMS) at Muscarinic acetylcholine receptor M1.
In test [20] the target is Muscarinic acetylcholine receptor M3 (Homo sapiens) (UniProt P20309). The experiment in a line: Subtype selectivity and the cooperativity with N-methyl Scopolamine (NMS) at muscarinic acetylcholine receptor M3; Activity range is 0.2-0.8.

Sequence of Muscarinic acetylcholine receptor M3 (Homo sapiens) (P20309 whole entry, looked up): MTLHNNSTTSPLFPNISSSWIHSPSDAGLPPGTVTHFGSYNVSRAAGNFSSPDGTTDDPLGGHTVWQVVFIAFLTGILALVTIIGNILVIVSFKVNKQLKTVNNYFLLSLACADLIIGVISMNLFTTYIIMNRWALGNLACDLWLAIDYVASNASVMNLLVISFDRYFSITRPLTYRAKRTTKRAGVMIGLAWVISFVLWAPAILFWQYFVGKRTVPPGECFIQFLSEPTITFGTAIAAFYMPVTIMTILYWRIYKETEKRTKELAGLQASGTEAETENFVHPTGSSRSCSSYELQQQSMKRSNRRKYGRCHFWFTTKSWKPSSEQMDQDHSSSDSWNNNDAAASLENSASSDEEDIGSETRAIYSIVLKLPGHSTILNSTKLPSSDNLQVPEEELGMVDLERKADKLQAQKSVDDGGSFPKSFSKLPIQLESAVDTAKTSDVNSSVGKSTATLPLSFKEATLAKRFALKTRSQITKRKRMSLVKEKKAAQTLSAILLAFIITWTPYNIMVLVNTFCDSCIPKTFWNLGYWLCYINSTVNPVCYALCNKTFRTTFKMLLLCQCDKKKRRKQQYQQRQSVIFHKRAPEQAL

For `COc1cc2c3c4c(cc5c3n(c2cc1OC)C(=O)CC5)CCNC4`, the Cooperativity in [1] is 3; in [3] it was 3; in test [6], greater than 3; in test [9] it was greater than 3. The Log 1/M was 6.97 in [2]; 5.53 in test [4]; 6.28 in test [5]; 5.9 in [7]; 6.19 in [8]; 6.57 in test [10]. Besides, the Log 1/M was determined as 6.44 in test [11] and 5.19 in [12].
Turning to `O=C1CCc2cc3c(c4c5cc6c(cc5n1c24)OCO6)CCNC3`, the Log 1/M was determined as 6.31 in test [2]; 5.06 in test [4]; 6.18 in [5]; 5.29 in [7]; 6.06 in test [8]; 5.73 in test [10]. The values for the Log 1/M in test [11] and in test [12] were 5.99 and 5.61, respectively. The Cooperativity stood at 3 in test [13], 0.8 in test [14], 0.8 in [15] and 0.8 in test [16].
As to `COC(=O)c1ccc2c(c1)c1c3c(cc4c1n2C(=O)CC4)CNCC3`, the Cooperativity was 0.8 in test [17], 1.19 in test [18], less than 0.2 in test [19] and 0.8 in [20]. Moreover, the Log 1/M in test [2] worked out at 6.43; in test [4], 5.09; in test [5], 6.44; in test [7] it was 5.55; in test [8], 6.32; in test [10] it was 6. For the same molecule, the Log 1/M worked out at 5.62 in [11] and 5.64 in test [12].
